The target of experiment [1] is T1, human EP3 receptor (Homo sapiens, UniProt P43115).
T1 construct: expressed in transfected cells; membranes
T1 sequence (P43115 1-390): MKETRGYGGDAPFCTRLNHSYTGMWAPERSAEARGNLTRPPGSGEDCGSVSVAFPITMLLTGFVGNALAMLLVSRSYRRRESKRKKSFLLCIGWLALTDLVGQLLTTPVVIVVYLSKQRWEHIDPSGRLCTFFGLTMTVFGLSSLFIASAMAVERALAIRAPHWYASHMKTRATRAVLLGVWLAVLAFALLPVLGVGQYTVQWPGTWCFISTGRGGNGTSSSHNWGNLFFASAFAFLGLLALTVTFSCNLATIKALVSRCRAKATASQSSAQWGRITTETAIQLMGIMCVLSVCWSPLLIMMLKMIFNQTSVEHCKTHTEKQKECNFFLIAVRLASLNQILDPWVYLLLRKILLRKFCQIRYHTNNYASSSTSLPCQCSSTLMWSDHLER
As to the kind of experiment: Human EP3 receptor binding assay (displacement of 3H-prostaglandin E2 from 293S cell membranes). The following applies: displacement of 3H-prostaglandin E2, 293S membranes. The text has this:
(§1) The compounds of Formula I, which are useful in the methods of the present invention, bind to the prostaglandin E2 type 4 receptor (EP4 receptor). The full length coding sequence for the human EP1 receptor is made in accordance with the procedure in Funk et al., Journal of Biological Chemistry, 1993, 268, 26767-26772. The full length rat EP2 receptor is made in accordance with the procedure in Nemoto et al., Prostaglandins and other Lipid Mediators, 1997, 54, 713-725. The full length coding sequence for the human EP3 receptor is made in accordance with the procedure in Regan et al., British Journal of Pharmacology, 1994, 112, 377-385. The full length coding sequence for the rat EP4 receptor is made in accordance with the procedure in Sando et al., Biochem. Biophys. Res. Comm. 1994, 200, 1329-1333. These full length receptors are used to prepare 293S cells expressing the human EP1, rat EP2, human EP3 or rat EP4 receptors.
(§2) The full length receptors described above are used to prepare 293S cells expressing the EP1, EP2, EP3, and EP4 receptors. […]
(§3) Membrane Preparation: All operations are performed at 4° C. […] Pelleted membranes are resuspended to 3-10 mg protein per ml, protein concentration being determined of the method of Bradford [Bradford, M., Anal. Biochem. 1976, 72, 248]. […]
In general terms: Loss of bound radioactivity is the signal in a displacement assay; it reports binding, not function.

Experiment [2] deals with T2, human EP1 receptor (Homo sapiens, UniProt P34995).
T2 construct: expressed in transfected cells; membranes
T2 sequence (P34995 1-402): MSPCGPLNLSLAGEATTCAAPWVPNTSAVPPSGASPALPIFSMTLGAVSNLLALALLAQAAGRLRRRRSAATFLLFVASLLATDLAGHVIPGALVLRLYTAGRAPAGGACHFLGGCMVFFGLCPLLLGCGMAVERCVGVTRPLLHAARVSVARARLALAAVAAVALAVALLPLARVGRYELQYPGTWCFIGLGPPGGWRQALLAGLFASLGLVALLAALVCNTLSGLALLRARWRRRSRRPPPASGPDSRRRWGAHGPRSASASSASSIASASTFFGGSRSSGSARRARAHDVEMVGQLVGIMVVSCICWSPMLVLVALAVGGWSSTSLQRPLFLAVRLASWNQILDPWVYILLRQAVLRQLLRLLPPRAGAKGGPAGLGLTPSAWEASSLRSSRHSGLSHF
Briefly: Human EP1 receptor binding assay (displacement of 3H-prostaglandin E2 from 293S cell membranes). The following applies: displacement of 3H-prostaglandin E2, 293S membranes.
Description: as §1, §2, §3

For experiment [3], the target named is T3, rat EP2 receptor (Rattus norvegicus, UniProt Q62928).
T3 construct: The full length rat EP2 receptor is made in accordance with the procedure in Nemoto et al; expressed in transfected cells; membranes
As to the kind of experiment: Rat EP2 receptor binding assay (displacement of 3H-prostaglandin E2 from 293S cell membranes). The following applies: displacement of 3H-prostaglandin E2, 293S membranes.
Description: as §1, §2, §3

Experiment [4] concerns the target T4, rat EP4 receptor (Rattus norvegicus, UniProt P43114).
T4 construct: expressed in transfected cells
Briefly: Whole cell 3H-PGE2 binding with Scatchard analysis in 293S transfectants. The settings on record: cell line selected for compound screening. On the procedure: Clonal cell lines expressing the maximal number of receptors are chosen following a whole cell ^3H-PGE2 binding assay using unlabeled PGE2 as a competitor. […] Constitutive expression of the receptor in parental 293-S cells is negligible. A stable cell line containing the rat EP4 receptor is grown in Dulbecco's Mosified Eagle Medium/F12 (DMEM/F12) containing 10% fetal bovine serum and G418 (500 μg/ml) to 80% confluency.

This note sets out measurements from patent US7414071B2, “Methods of treatment with selective EP4 receptor agonists” (Pfizer Inc., priority 2002, dated 2008).

Broadly, the IC50 is the concentration at which inhibition is half-maximal. In general, Kd refers to the constant that tells how readily two partners part at equilibrium.

T4 sequence (P43114 whole entry): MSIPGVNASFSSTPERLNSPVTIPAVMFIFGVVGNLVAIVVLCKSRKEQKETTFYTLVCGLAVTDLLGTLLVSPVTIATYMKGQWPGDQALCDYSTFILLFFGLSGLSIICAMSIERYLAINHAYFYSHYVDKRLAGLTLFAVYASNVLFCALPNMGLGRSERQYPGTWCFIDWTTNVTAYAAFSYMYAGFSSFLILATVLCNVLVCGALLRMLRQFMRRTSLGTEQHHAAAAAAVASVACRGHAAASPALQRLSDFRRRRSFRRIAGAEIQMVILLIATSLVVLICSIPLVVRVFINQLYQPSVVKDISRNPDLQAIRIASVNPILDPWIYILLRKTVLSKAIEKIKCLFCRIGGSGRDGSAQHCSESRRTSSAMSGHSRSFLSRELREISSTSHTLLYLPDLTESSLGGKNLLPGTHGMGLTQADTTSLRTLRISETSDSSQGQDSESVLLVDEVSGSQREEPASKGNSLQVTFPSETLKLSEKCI
T3 sequence (Q62928 whole entry): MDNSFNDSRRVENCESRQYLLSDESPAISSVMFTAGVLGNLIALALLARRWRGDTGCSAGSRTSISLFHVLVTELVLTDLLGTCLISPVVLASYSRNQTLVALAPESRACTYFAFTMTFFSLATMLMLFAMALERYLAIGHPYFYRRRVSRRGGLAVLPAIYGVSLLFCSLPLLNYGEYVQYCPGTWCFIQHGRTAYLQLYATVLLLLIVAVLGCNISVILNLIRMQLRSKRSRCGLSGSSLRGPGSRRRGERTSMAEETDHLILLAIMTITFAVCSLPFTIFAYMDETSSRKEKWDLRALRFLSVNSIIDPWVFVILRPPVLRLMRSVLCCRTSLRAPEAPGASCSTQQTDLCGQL

Take `O=C(O)c1ccc(CCCN2C(=O)CC[C@@H]2CC[C@@H](O)Cc2cccc(C(F)(F)F)c2)s1` [Compound 3M]: the IC50 in experiment [1] is more than 1 µM; in experiment [2], more than 1 µM; in experiment [3] it was 0.463 µM.
With `CCCCC[C@H](O)/C=C/[C@H]1[C@H](O)CC(=O)[C@@H]1C/C=C\CCCC(=O)O` [PGE2, Prostaglandin E2], the affinity in experiment [4], expressed as Kd, was 0.0029 µM.
